A short description of data set [1]: Hygroscopicity evaluation (DVS). The data set is classed as physicochemical. Conditions: for water uptake up to 80% RH: DVS isotherm at 25 °C between 0% RH and 95% RH; for hygroscopicity (in words): DVS at 25 °C, water uptake up to 80% RH. The procedure:
Compound 1 Freebase Type A/B/C, Compound 1 maleate salt Type A, and Compound 1 citrate salt Type A were evaluated for hygroscopicity. DVS isotherm plots were collected at 25 ? between 0% RH and 95% RH.

Data set [2] can be described thus: Kinetic solubility evaluation. The format is physicochemical. Conditions: H2O, SGF and FaSSIF, 37 °C, solid loading ~10 mg/mL (calculated as freebase). On the procedure: Kinetic solubility of Compound 1 Freebase Type A, Compound 1 maleate salt Type A, and Compound 1 citrate salt Type A were measured in water, SGF (Simulated Gastric Fluid), FaSSIF (Fasted State Simulated Intestinal Fluid) and FeSSIF (Fed State Simulated Intestinal Fluid) at 37 ? with solid loading of ~10 mg/mL (calculated as freebase). The results are presented in FIG. 59A, FIG. 59B, FIG. 59C, and FIG. 59D.

Data set [3] can be described thus: Stability of 1 mg capsules (total impurity). The data set is classed as physicochemical. The following applies: 1 mg capsules in aluminum blister foils. On the procedure:
Compound 1 freebase Type A or Compound 1 maleate salt Type A was sieved with 40 mesh sieves, followed by mixing with the same amount of diluent, disintegrant and lubricant to prepare 1000 capsules. The strength of these capsules is 1 mg, and the capsules are packaged in aluminum blister foils. The stability of 1 mg capsules was investigated at 40° C./75% RH and 60° C., and the results were in Table 26.

Data set [4] is described as follows: Pharmacokinetics in male Sprague Dawley rats, intravenous injection. The format is in vivo. The following applies: rat, plasma, 1 mg/kg; male SD rats, n=3, intravenous injection, 0.2 mg/mL, 5 mL/kg. On the procedure: Test compounds was dissolved in 5% DMSO+95% (10% HP-β-CD in Saline) to a concentration of 0.2 mg/mL and given to SD rats (Male, n=3) by intravenous injection (5 mL/kg). Blood samples were collected at 0.083 h, 0.25, 0.5, 1, 2, 4, 8, and 24 h after injection (anticoagulant:K2-EDTA). These tubes were kept in an ice bath prior to centrifugation at approximately 6800 g for 6 minutes at approximately 5° C. Samples were analyzed for the presence of the test compound with an TQ5500 mass spectrometer (AB Sciex) coupled to an ACQUITY UPLC BEH C18 (1.7 μm, 2.1 mm×50 mm) HPLC column. Gradient elution was applied consisting of ultrapure water containing 0.1% formic acid and acetonitrile containing 0.1% formic acid. Standard set of parameters including Area Under the Curve (AUC (0-t) and […]), elimination half-live (T1/2), maximum plasma concentration (Cmax), time to reach maximum plasma concentration (Tmax) will be calculated using non-compartmental analysis modules in Phoenix WinNonlin 7.0 (Pharsight, USA).

The subject of another data set is HCT116 MTAP−/−. The data set is described as follows: Inhibition of cellular proliferation (Cell Titer Glo), HCT116 MTAP-/-. The data set is classed as cell-based. Conditions: Homo sapiens, HCT-116, 120 h, 5 days treatment. On the procedure:
(§1) Test compound impact on cancer cell growth was assessed by treating cancer cells with compound for 5 days and then measuring proliferation using an ATP-based cell proliferation readout (Cell Titer Glo, Promega Corporation).
(§2) In a typical assay an isogenic pair of HCT116 human colon carcinoma cell lines which vary only in MTAP deletion status (HCT116 MTAP+/+ and HCT116 MTAP−/−) were plated in 96-well dishes at appropriate cell density. Following 24 hours, cells were then treated with the candidate MAT2A inhibitor. Prior to addition to cells, the compound was first serially diluted in DMSO, typically as a 3-fold serial dilution with 9 dose points.
(§3) Compound was then transferred to a working stock plate in cell culture media by adding 3 μl of compound in DMSO to 297 μl of cell culture media. […]
(§4) To measure inhibition of cellular proliferation, cells were allowed to equilibrate to room temperature for 30 minutes, and were then treated with 40 μl of Cell Titer Glo reagent. […] Luminescent signal of the Cell Titer Glo reagent was then measured using a plate-based luminometer and normalized via an ATP standard curve. This luminescence measure was converted to a proliferation index by subtracting from each datapoint the ATP luminescence measured from a control cell plate that was measured at the time of compound treatment. […]
In general terms: In ATP-based viability assays light output follows the ATP content of the culture.

In the next data set the test system is HCT116 MTAP+/+. The data set is described as follows: Inhibition of cellular proliferation (Cell Titer Glo), HCT116 WT (MTAP+/+). The format is cell-based. Conditions: Homo sapiens, HCT-116, 120 h, 5 days treatment. The procedure: as §1, §2, §3, §4

Where a name gives a salt, the structure may show the parent alone.

Take `C#CCNc1nc(=O)n(-c2cccnc2C)c2cc(C(F)(F)F)cc(OC)c12` [Compound 1 Freebase Type C, 5-methoxy-1-(2-methylpyridin-3-yl)-4-(prop-2-yn-1-ylamino)-7-(trifluoromethyl) quinazolin-2 (1H)-one]: the “water uptake up to 80% RH” value in data set [1] is recorded as ~ 6.7%.
In the case of `C#CCNc1nc(=O)n(-c2cccnc2C)c2cc(C(F)(F)F)cc(OC)c12` [Compound 1 citrate salt Type A, 5-methoxy-1-(2-methylpyridin-3-yl)-4-(prop-2-yn-1-ylamino)-7-(trifluoromethyl) quinazolin-2 (1H)-one], in data set [1], the “hygroscopicity (in words)” value was “slightly hygroscopic” and the “water uptake up to 80% RH” value came out at 1.6%. In data set [2], the “kinetic solubility compared with Compound 1 Freebase Type A” value is recorded as “improved solubility”.
On to `C#CCNc1nc(=O)n(-c2cccnc2C)c2cc(C(F)(F)F)cc(OC)c12` [Compound 1 maleate salt Type A, 5-methoxy-1-(2-methylpyridin-3-yl)-4-(prop-2-yn-1-ylamino)-7-(trifluoromethyl) quinazolin-2 (1H)-one], for which the “hygroscopicity (in words)” value in data set [1] is given as “non-hygroscopic”. Besides, the “water uptake up to 80% RH” value in data set [1] was ~ 0.07%. The “kinetic solubility compared with Compound 1 Freebase Type A” value in data set [2] was “improved solubility”. In data set [2], the “kinetic solubility compared with Compound 1 citrate salt Type A” value was “higher solubility”. The Total impurity in data set [3] (40° C./75% RH, 0 d, listed as Maleate Type A) is given as 0.10%; in data set [3] (40° C./75% RH, 10 d, listed as Maleate Type A) it was 2.0%; in data set [3] (60° C., 0 d, listed as Maleate Type A), 0.10%; in data set [3] (60° C., 5 d, listed as Maleate Type A) it was 12.6%.
Take `C#CCNc1nc(=O)n(-c2cccnc2C)c2cc(C(F)(F)F)cc(OC)c12` [Compound 1 Freebase Type A, 5-methoxy-1-(2-methylpyridin-3-yl)-4-(prop-2-yn-1-ylamino)-7-(trifluoromethyl) quinazolin-2 (1H)-one]: in data set [4], the clearance (usually a measure of how efficiently the substance is removed, as volume per time) came out at 0.17 mL/min/kg. The concentration for half-maximal inhibition (IC50) (commonly the concentration that inhibits the measured activity by half) was 0.198 µM in the data set with HCT116 MTAP−/− and 21 µM in the data set with HCT116 MTAP+/+. Further, the “hygroscopicity (in words)” value in data set [1] was “slightly hygroscopic”. Further, in data set [1], the “water uptake up to 80% RH” value was ~ 0.3%. Moreover, the Total impurity is given as 0.21% in data set [3] (40° C./75% RH, 0 d, listed as Free form Type A); 0.95% in data set [3] (40° C./75% RH, 10 d, listed as Free form Type A); 0.21% in data set [3] (60° C., 0 d, listed as Free form Type A); 4.4% in data set [3] (60° C., 5 d, listed as Free form Type A); 8.04% in data set [3] (60° C., 10 d).
Consider `C#CCNc1nc(=O)n(-c2cccnc2C)c2cc(C(F)(F)F)cc(OC)c12` [Compound 1 Freebase Type B, 5-methoxy-1-(2-methylpyridin-3-yl)-4-(prop-2-yn-1-ylamino)-7-(trifluoromethyl) quinazolin-2 (1H)-one], for which the “water uptake up to 80% RH” value in data set [1] was ~ 11.6%.

The record behind these values is US20260285830A1, “CRYSTALLINE METHIONINE ADENOSYLTRANSFERASE 2a (MAT2A) INHIBITOR AND USES THEREOF” (Insilico Medicine IP Limited, priority 2023, published 2026).
